From PMC10256776, “Cryo-EM structures of ClC-2 chloride channel reveal the blocking mechanism of its specific inhibitor AK-42” (Nature Communications, 2023)
Positions count from the first letter of the chain named.

Tests used:
Experiment in all cases: whole-cell patch clamp, […] AK-42
Assay type in all cases: cell-based
[1] = target: T1, ClC-2 (Homo sapiens, UniProt P51788, K394R)
T1 construct: gene CLCN2; human ClC-2 mutant expressed in CHO-K1 cells
T1 sequence (P51788 2-898 K394R): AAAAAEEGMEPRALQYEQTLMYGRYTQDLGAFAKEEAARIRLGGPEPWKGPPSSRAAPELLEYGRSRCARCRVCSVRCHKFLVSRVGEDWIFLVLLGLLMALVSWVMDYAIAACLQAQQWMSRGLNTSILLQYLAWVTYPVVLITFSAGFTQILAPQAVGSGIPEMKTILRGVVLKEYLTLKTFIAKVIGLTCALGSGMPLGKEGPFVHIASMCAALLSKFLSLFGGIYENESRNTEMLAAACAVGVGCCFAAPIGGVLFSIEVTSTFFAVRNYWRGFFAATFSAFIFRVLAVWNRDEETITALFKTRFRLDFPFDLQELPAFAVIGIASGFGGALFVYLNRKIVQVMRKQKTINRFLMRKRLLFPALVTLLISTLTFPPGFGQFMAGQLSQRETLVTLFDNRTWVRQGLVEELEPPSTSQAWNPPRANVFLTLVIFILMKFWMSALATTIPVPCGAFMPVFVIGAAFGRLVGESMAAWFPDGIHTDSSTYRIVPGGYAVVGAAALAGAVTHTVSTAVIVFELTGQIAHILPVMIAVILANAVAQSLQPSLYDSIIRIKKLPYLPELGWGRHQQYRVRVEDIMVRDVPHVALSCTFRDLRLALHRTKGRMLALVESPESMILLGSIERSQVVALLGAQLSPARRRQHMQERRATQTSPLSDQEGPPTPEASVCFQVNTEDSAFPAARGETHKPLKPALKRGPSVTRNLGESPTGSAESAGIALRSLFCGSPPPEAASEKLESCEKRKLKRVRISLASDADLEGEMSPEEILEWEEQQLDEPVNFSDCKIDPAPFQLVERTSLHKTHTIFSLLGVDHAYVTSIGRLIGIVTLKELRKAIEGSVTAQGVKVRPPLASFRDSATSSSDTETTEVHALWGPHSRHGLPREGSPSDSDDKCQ

[2] = target: T2, ClC-2 (Homo sapiens, UniProt P51788, F459A)
T2 construct: gene CLCN2; human ClC-2 mutant expressed in CHO-K1 cells
T2 sequence (P51788 2-898 F459A): T1 sequence (P51788 2-898 K394R) with R393K, F458A

[3] = target: T3, ClC-2 (Homo sapiens, UniProt P51788, K394A)
T3 construct: gene CLCN2; human ClC-2 mutant expressed in CHO-K1 cells
T3 sequence (P51788 2-898 K394A): T1 sequence (P51788 2-898 K394R) with R393A

O=C(O)c1cccnc1Nc1c(Cl)ccc(OCc2ccccc2)c1Cl [AK-42, 2-((3-(benzyloxy)−2,6-dichlorophenyl)amino)nicotinic acid]
whole-cell patch clamp, 30 nM AK-42 [1]: K394R and K394A showed a slightly lower but not significant percent inhibition of AK-42 than wild-type ClC-2
whole-cell patch clamp, 30 nM AK-42 [2]: the mutation F459A in the hydrophobic pocket shows a higher percent inhibition value than wild-type ClC-2
whole-cell patch clamp, 30 nM AK-42 [3]: K394R and K394A showed a slightly lower but not significant percent inhibition of AK-42 than wild-type ClC-2
